The values below come from article PMC12811501, “A plant-derived antimicrobial peptide with multiple mechanisms of action exhibiting antibacterial and antibiofilm activities comparable to or superior to polymyxin B” (Current Research in Microbial Sciences, 2025).

Data set [1] relates to human keratinocyte HaCaT cells. The following applies: cited from earlier work.
The nature of data set [2]: Liposome sedimentation assay. Format: binding. The following applies: 20 μM peptide, 30 min room temperature, 200,000 × g, SDS-PAGE. Here is the method:
To prepare the liposomes, phospholipids DMPC and Cardiolipin purchased from Avanti Polar Lipids (Alabaster, AL, USA) were dissolved in Chloroform:Methanol:Water in the ratio of (65:25:4) and (73:23:3) respectively, and dried under vacuum for 1 h. The lipid film was suspended in the assay buffer (20 mM HEPES, 150 mM NaCl, pH 7.0), vortexed, and sonicated for 15 min to form the liposomes. The assay was carried out by incubating 2 mM of the liposomes with 20 μM of NCR169C17–38 peptide and incubated for 30 min at room temperature, followed by ultracentrifugation at 200,000 × g for 15 min at 20 °C. After centrifugation, the supernatant (sn) and pellet (p) fractions were collected separately and were subjected to glycine-SDS-PAGE. The peptides were detected by Coomassie Brilliant Blue staining.
Prepared liposomes were incubated with NCR169C17–38, then separated by ultracentrifugation. Peptide remaining in the supernatant (sn) fraction indicated no binding, whereas peptide detected in the pellet (p) fraction indicated liposome association.

A further data set deals with Cryptococcus neoformans. The following applies: ref Szerencsés et al., 2025; cited from earlier work. An excerpt: (§1) NCR169 is another NCR peptide essential for differentiation of nitrogen fixing bacteroids in Medicago species ([Horváth et al., 2015]). This 38-amino-acid peptide contains four cysteines that are critical for its symbiotic function in planta.
Another data set has as its system Candida species. The following applies: ref Szerencsés et al., 2021; cited from earlier work.
Text: as §1

The test system of the next data set is Acinetobacter baumannii. The data set can be described thus: microbe, parasite or virus in culture. It is filed as cell-based. Here is the method:
For the biofilm inhibition assay the antimicrobial activity test was done in 1/10 MHB using A. baumannii treated with the respective dilutions of NCR169C17–38, meropenem or polymixin B for 24 h. After taking the 5 μl samples at the end of the treatment and placed on LB agar to detect bacterial growth, the rest of the grown bacterial suspensions were discarded from the plate and the remaining biofilm on the walls of the plate was then washed three times with sterile water and stained using 1 % Crystal Violet (CV) for 15 min to visualize the produced biofilm. The non-adherent CV dye was then removed by washing with water three times. The plate was left for complete drying, then the biofilm-bound CV dye was dissolved in 200 µl of 30 % acetic-acid with shaking over 15 min. The absorbance was measured at OD550 using a HIDEX Plate Reader (Hidex Sense Microplate Reader with Plate Reader Software version 5064, Hidex, Finland). All measurements were repeated three times.
We examined the capacity of NCR169C17–38 to inhibit biofilm formation by Acinetobacter baumannii, a pathogen well known for its robust biofilm production and high level of antibiotic resistance. […] Additionally, at the end of the experiment we determined the quantity of the biofilm and thereby evaluated their ability to inhibit biofilm formation during culturing the bacteria in the presence of different concentrations of the agents (Fig. 1.A). We tested concentrations of NCR169C17–38 ranging from 25 μM to 0.4 μM, meropenem from 100 μM to 1.6 μM and polymyxin B from 3.1 μM to 0.05 μM.

In a further data set the test system is A. baumannii. Format: cell-based, Acinetobacter baumannii. Conditions: 8 h. Here is the method: For serum stability test human blood was purchased from the Regional Blood Centre in Szeged (the use of human blood has been authorized by the Regional Hungarian Ethics Committee and approved by the Ethics Review Sector of DG RTD (European Commission) in connection with EK’s ERC AdG SymBiotics). The cells from 10 ml of EDTA-blood were centrifuged at 1500 × g for 1 min and washed several times in TBS buffer (10 mM Tris, pH: 7.2, 150 mM NaCl) until the supernatant, representing the serum, became colorless. The NCR169C17–38 peptide was added to the serum at 1:1 ratio and incubated at room temperature for 8 h. Subsequently, serial 2-fold dilutions of the peptide were prepared in PPB, with concentrations ranging from 100 to 0.2 µM and antimicrobial assay was done to determine the MBC values. Experiments were done in three biological replicates.

≈ marks a conversion by molar mass, not a printed value. Residues, ends and D or L forms follow the SMILES beside them.

With `CC[C@H](C)[C@H](NC(=O)[C@H](CCCCN)NC(=O)[C@H](Cc1ccccc1)NC(=O)[C@H](CC(C)C)NC(=O)[C@@H]1CCCN1C(=O)[C@H](CCCCN)NC(=O)[C@H](CCCCN)NC(=O)[C@H](CO)NC(=O)[C@@H](N)CCCCN)C(=O)N[C@@H](Cc1c[nH]c2ccccc12)C(=O)N[C@@H](CCCCN)C(=O)N[C@@H](CS)C(=O)N[C@H](C(=O)N[C@@H](CCC(=O)O)C(=O)N[C@@H](CC(N)=O)C(=O)N[C@H](C(=O)N[C@@H](CS)C(=O)N[C@H](C(=O)N[C@@H](CC(C)C)C(=O)N[C@@H](Cc1c[nH]c2ccccc12)C(=O)N[C@@H](Cc1ccc(O)cc1)C(=O)N[C@@H](CCCCN)C(N)=O)C(C)C)C(C)C)C(C)C` [NCR169C17–38] (H-KSKKPLFKIWKCVENVCVLWYK-NH2; N-terminus assumed), the cytotoxicity result in data set [1] is “non-cytotoxic”. In addition, the figures for the liposome binding result in data set [2] (2 mM Cardiolipin liposomes) and in data set [2] (2 mM DMPC liposomes) were “bound strongly” and “no binding”, respectively. For the same molecule, the antifungal activity entry with Cryptococcus neoformans and in the data set on Candida species was “potent antifungal activity” in each case. In addition, the MBC in the data set with Acinetobacter baumannii (24 h, read-out: MBC, Inhibition test after 24 h) was found to be 6.3 µM (≈ 17.3 µg/mL). The “inhibition of biofilm formation (Crystal Violet, OD550)” value in the data set with Acinetobacter baumannii (A. baumannii, 24 h treatment, NCR169C17–38 25-0.4 μM, meropenem 100-1.6 μM, polymyxin B 3.1-0.05 μM) is on record as “remaining effective even at lower doses”. In addition, the “MBC after pre-incubation in human serum” value against A. baumannii was 6.3 µM (≈ 17.3 µg/mL).
